Experimental data as given in the CheMixHub viscosity set.

Assay: xn = mol fraction of the nth substance listed

COc1ccccc1N + OCCCl
viscosity [mPa·s], 100 kPa
Details	x1 = 0.1041	x1 = 0.2448	x1 = 0.3401	x1 = 0.4623	x1 = 0.5621	x1 = 0.6825	x1 = 0.7612	x1 = 0.8484	x1 = 0.9217
303.15 K	2.83	3.17	3.4	3.69	3.92	4.2	4.38	4.58	4.75
308.15 K	2.5	2.83	3.05	3.33	3.55	3.82	4	4.19	4.35
313.15 K	2.11	2.44	2.67	2.96	3.19	3.47	3.65	3.85	4.01
318.15 K	1.82	2.15	2.38	2.66	2.9	3.17	3.35	3.55	3.71

COCCOC + O=[N+]([O-])c1ccccc1
298.15 K, 101 kPa
Details	viscosity [mPa·s]
x1 = 0.1318	1.472
x1 = 0.2546	1.27
x1 = 0.3693	1.087
x1 = 0.4766	0.929
x1 = 0.5774	0.793
x1 = 0.672	0.688
x1 = 0.7612	0.599
x1 = 0.8453	0.523
x1 = 0.9248	0.462

COc1ccccc1N + CCC(=O)CC
viscosity [mPa·s], 100 kPa
Details	x1 = 0.0991	x1 = 0.1998	x1 = 0.2865	x1 = 0.3698	x1 = 0.4502	x1 = 0.5469	x1 = 0.6601	x1 = 0.7965	x1 = 0.8805
303.15 K	0.905	1.383	1.793	2.178	2.544	2.98	3.48	4.069	4.425
308.15 K	0.85	1.3	1.681	2.038	2.379	2.784	3.249	3.796	4.123
313.15 K	0.795	1.217	1.569	1.897	2.213	2.586	3.016	3.52	3.819
